Values after ≈ are worked out from the molar mass of the structure shown.
How the values were obtained:
[1] = In vitro 3T3 NRU phototoxicity assay OECD 432; assay type: cell-based, mouse; details: mouse, reference item; for viability at 1 h, 200 µg/mL: C1 = 200 µg/mL; for viability at 1 h, 66.67 µg/mL: C2 = 66.67 µg/mL; for viability at 1 h, 22.22 µg/mL: C3 = 22.22 µg/mL; for viability at 1 h, 7.407 µg/mL: C4 = 7.407 µg/mL; for viability at 1 h, 2.47 µg/mL: C5 = 2.47 µg/mL; for viability at 1 h, 0.823 µg/mL: C6 = 0.823 µg/mL; for viability at 1 h, 0.274 µg/mL: C7 = 0.274 µg/mL; for viability at 1 h, 0.091 µg/mL: C8 = 0.091 µg/mL
Experimental: (§1) The phototoxicity assay used 3T3 cells as test system. The aim of this study was to obtain the Photo-Irritation Factor (PIF) for the postbiotic composition of the invention. 3T3 cells were treated with the postbiotic composition of the invention at eight different concentrations for 1 hour. Thereafter, half of the samples were exposed to simulated solar irradiation, whereas the other half was kept in the dark. Cell viability was calculated after 24 hours of incubation by means of the neutral red assay. The following reagents were used for these assays. Table 3 Table 3 Reagents used in this example
(§2) Balb/c 3T3 cells were used as a test system. Once thawed, cells were grown as a monolayer in DMEM culture medium supplemented with 10% Newborn Calf Serum (NCBS) and antibiotics (100 U/mL penicillin and 100 µg/mL streptomycin). The cells were incubated under standard culture conditions (37°C ± 2°C and 5% CO2/air), changing the medium every 2-3 days and sub-cultivating before reaching 80% confluency. According to the guideline, the 3T3 cells used in this study were tested for mycoplasma and only mycoplasma-free cells were used throughout the study.
(§3) To prepare the system, after thawing, cells were propagated from stock cultures and grown in culture medium for two weeks. For each assay, when cell density reached 80% confluence, they were trypsinized and counted using trypan blue strain. The day before the exposition to the postbiotic composition of the invention, the cells were tripsinized and counted. A suspension of 100,000 cells/mL was prepared and 200 µL of the suspension were added to each well in 96-well plates (20,000 cells/well), except in the peripheral wells.
(§4) According to the OECD Guideline for testing of chemicals: In Vitro 3T3 NRU phototoxicity test, protocol No 432 (2019), the maximum concentration to be analyzed is 1 mg/mL. As the cytotoxicity assay exposed the cells to the composition for 24 hours, and the phototoxicity assay includes an exposition of 1 hour, it was decided to perform the phototoxicity test starting from 1 mg/mL. From this concentration, eight concentrations were prepared in 1/3 dilutions. This solution was prepared in Hank's with Ca2+ and Mg2+ and HEPES. (C1) 1 mg/mL; (C2) 0.33 mg/mL; (C3) 0.11 mg/mL; (C4) 0.037 mg/mL; (C5) 0.0123 mg/mL; (C6) 0.0041 mg/mL; (C7) 0.00137 mg/mL; and (C8) 0.000457 mg/mL SDS was used as a positive control, 8 concentrations were prepared 400 µg/mL; 200 µg/mL; 100 µg/mL; 50 µg/mL; 25 µg/mL; 12.5 µg/mL; 6.25 µg/mL; and 3.125 µg/mL
(§5) As the exposition time involved in the phototoxicity test was shorter, it was decided to start this assay from highest concentration allowed: 1 mg/mL. Seven more concentrations were prepared in 1/3 dilutions. 3T3 cells were seeded at 20,000 cells/well in 96-well plates. Cells were exposed to the eight concentrations of the postbiotic composition of the invention defined above for 1 hour at 37°C and 5% CO2. Two 96-well plates were prepared for the postbiotic composition of the invention, the postbiotic composition and reference control (CPZ). One plate of each condition (+IRR) was irradiated for 52 minutes at 5 J/cm^2 while the other plates (- IRR) were kept in the dark for the same amount of time. Then, culture media was removed, cells were washed with Hank's without phenol red and 100 µL of neutral red were added to each well. Cells were incubated for 3 hours at 37°C and 5% CO2 and then were washed again. Finally, the neutral red was solubilized by adding 100 µL to each well of a solution of Acetic acid/Ethanol. Plates were incubated 10 minutes at room temperature and absorbance at 540 nm was measured.
(§6) Once obtained the cytotoxic results, the phototoxicity assay for the postbiotic composition of the invention was performed using 1 mg/mL as the highest dose. […] Therefore, it was decided to use the highest concentration allowed according to OECD 432 guideline. In total, 8 concentrations were prepared as disclosed in the material and methods section above. […]

BALB/c 3T3 cells = assay: In vitro 3T3 NRU phototoxicity assay OECD 432; assay type: cell-based, mouse; details: for IC50: Mus musculus, BALB/c3T3, light or radiation study
Experimental: as §1, §2, §3, §4, §5, §6

3T3 cells = assay: Dose range finding (cytotoxicity assay, MTT); assay type: cell-based, mouse; details: 3T3, 24h
Experimental: - Prior to the phototoxicity assay, solubility of the composition was determined, it was decided to start from 20 mg/mL in culture media. Starting from this concentration, a dose range finding experiment (cytotoxicity assay) was performed. Starting from 20 mg/mL in culture media, eight concentrations were prepared in 1/10 dilutions: 20 mg/mL; 2 mg/mL; 0.2 mg/mL; 0.02 mg/mL; 0.002 mg/mL; 0.0002 mg/mL; 0.00002 mg/mL; and 0.000002 mg/mL
Starting from the limit of solubility obtained (20 mg/mL) a dose range finding experiment was set up in order to determine the IC50 value (if obtained). 3T3 cells were seeded at 10,000 cells/well in 96-well plates. Seven more concentrations were prepared following a 1/10 dilution factor. Cells were exposed to the postbiotic composition of the invention for 24h. SDS was used as positive control and viability was determined by means of MTT method.
To establish the concentrations to be tested in the phototoxicity assay, it was decided to check the postbiotic composition of the invention in a dose range finding assay using SDS as a positive control. Starting from 20 mg/mL dissolved in culture media it was decided to prepare the concentrations disclosed above in the materials and methods section. Using the Graphpad Prism 8 statistical software, we calculated the IC50 values by means of a 4-parameter logistic curve (4PL). This equation uses log(dose) values.

in vitro = details: human

Work on `CN(C)CCCN1c2ccccc2Sc2ccc(Cl)cc21` [CPZ, Chlorpromazine] yielded a viability at 1 h, 200 µg/mL ([1]; +IRR (5 J/cm^2)) of 2.57%, a viability at 1 h, 66.67 µg/mL ([1]; +IRR (5 J/cm^2)) of 0.32% and a viability at 1 h, 22.22 µg/mL ([1]; +IRR (5 J/cm^2)) of 1.62%. For the same compound, the viability at 1 h, 7.407 µg/mL ([1]; +IRR (5 J/cm^2)) was 1.75%, the viability at 1 h, 2.47 µg/mL ([1]; +IRR (5 J/cm^2)) was 1.31% and the viability at 1 h, 0.823 µg/mL ([1]; +IRR (5 J/cm^2)) was 83.4%. It also gave a viability at 1 h, 0.274 µg/mL ([1]; +IRR (5 J/cm^2)) of 104%, a viability at 1 h, 0.091 µg/mL ([1]; +IRR (5 J/cm^2)) of 103% and a viability at 1 h, 200 µg/mL ([1]; -IRR) of 0.41%. The viability at 1 h, 66.67 µg/mL ([1]; -IRR) was 0.01%, the viability at 1 h, 22.22 µg/mL ([1]; -IRR) was 97.8% and the viability at 1 h, 7.407 µg/mL ([1]; -IRR) was 104%. It also gave a viability at 1 h, 2.47 µg/mL ([1]; -IRR) of 105%, a viability at 1 h, 0.823 µg/mL ([1]; -IRR) of 105% and a viability at 1 h, 0.274 µg/mL ([1]; -IRR) of 104%. It also gave a viability at 1 h, 0.091 µg/mL ([1]; -IRR) of 102%, an IC50 (BALB/c 3T3 cells; irradiated plates) of 0.974 µg/mL (≈ 3.05 µM) and an IC50 (BALB/c 3T3 cells; non-irradiated plates) of 31.4 µg/mL (≈ 98.5 µM). The “MPE (∑i = 1^n wi PEci)/(∑i = 1^n wi)” value (BALB/c 3T3 cells; mouse, 1 h) was 0.401 and the “PIF (IC50(−Irr))/(IC50(+Irr))” value (BALB/c 3T3 cells; mouse, 1 h) was 32.303.
In the case of `CCCCCCCCCCCCOS(=O)(=O)[O-].[Na+]` [SDS, Sodium dodecyl sulphate], the “positive control result in dose range finding” value (3T3 cells) is reported as “within the known range” and the viability (in vitro) is reported as 2%.

From patent EP4501339A1, “POSTBIOTIC COMPOSITION FOR SKIN DISORDERS AND COSMETIC USE” (Igen Biolab Group AG, priority 2023, dated 2025)
